Data as given in BigSolDB 2.1.

CC#CCn1c(N2CCC[C@@H](N)C2)nc2c1c(=O)n(Cc1nc(C)c3ccccc3n1)c(=O)n2C
solubility (mole fraction)
Settings | 273.15 K | 278.15 K | 283.15 K | 288.15 K | 293.15 K | 298.15 K | 303.15 K | 308.15 K | 313.15 K
in acetonitrile | 0.000425 | 0.000546 | 0.000675 | 0.000821 | 0.000974 | 0.00114 | 0.00132 | 0.00151 | 0.00172
in ethanol | 0.000511 | 0.000637 | 0.000782 | 0.000947 | 0.00113 | 0.00137 | 0.00163 | 0.00194 | 0.00231
in isopropanol | 0.000227 | 0.000282 | 0.000343 | 0.000421 | 0.000496 | 0.000578 | 0.000668 | 0.000765 | 0.000874
in methanol | 0.00061 | 0.000778 | 0.00097 | 0.00121 | 0.00148 | 0.00179 | 0.00213 | 0.00254 | 0.00302
in n-propanol | 0.000342 | 0.000403 | 0.000478 | 0.000573 | 0.00067 | 0.000794 | 0.00093 | 0.00108 | 0.00125
